This assay addresses T1, human CFTR (Homo sapiens, UniProt P13569).
T1 construct: expressed in transfected cells
Description: Apical membrane Cl− current in CFTR-expressing FRT cells. Type of assay: cell-based. The note with it: for inhibition of CFTR after crofelemer pre-treatment: 50 μM crofelemer added first; for IC50 in absence versus presence of crofelemer: 50 μM crofelemer pre-added. The protocol: CFTR Cl^− current was measured in CFTR-expressing FRT cells in which the basolateral membrane was permeabilized by amphotericin B and a transepithelial Cl^− gradient was applied. Under these conditions, the measured current provides a direct quantitative measure of CFTR Cl^− conductance.
Measurements were done to investigate whether the Crofelemer inhibition potency depended on the CFTR activation mechanism. […] The reversibility of crofelemer inhibition of CFTR was investigated, since washout during secretory diarrhea is a concern in the use of a non-absorbable antisecretory agent. […] Following extensive washing, residual CFTR inhibition was determined from the current after re-stimulation by CPT-cAMP.
Comparisons of CFTR inhibition in the absence and presence of pre-added crofelemer tested the possibility that the site of action of crofelemer on CFTR might overlap with that of the small-molecule thiazolidinone and glycine hydrazide CFTR inhibitors.
FRT cells expressing human TMEM16A (cDNA provided by Dr. Luis Galietta, Gaslini Institute, Genoa, Italy) were generated similarly. FRT cells were cultured in F-12 Modified Coon's Medium (Sigma) supplemented with 10% fetal bovine serum (Hyclone), 2 mM glutamine, 100 units/ml penicillin, 100 μg/ml streptomycin, 350 μg/ml hygromycin and 500 μg/ml geneticin. […] T84 cells were cultured in DMEM/Ham's F-12 (1:1) medium containing 10% FBS, 100 units/ml penicillin and 100 μg/ml streptomycin.
FRT cells (stably expressing CFTR or TMEM16A) were cultured on Snapwell filters until confluence (transepithelial resistance >500 ohm.cm). Short-circuit current was measured in Ussing chambers (Vertical diffusion chamber; Costar) with Ringer's solution bathing the basolateral surface and half-Ringer's bathing the apical surface. Ringer's solution contained: 130 mM NaCl, 2.7 mM KCl, 1.5 mM KH2PO4, 1 mM CaCl2, 0.5 mM MgCl2, 10 mM Na-HEPES, 10 mM glucose, pH 7.3. Half-Ringer's solution was the same, except that 65 mM NaCl was replaced with Na gluconate, and CaCl2 was increased to 2 mM. […] Chambers were bubbled continuously with air. For T84 cells and bronchial epithelial cells, cells were bathed in symmetrical HCO3—buffered solution containing (in mM): 120 NaCl, 5 KCl, 1 MgCl2, 1 CaCl2, 10 D-glucose, 5 HEPES, and 25 NaHCO3 (pH 7.4), and aerated with 5% CO2 at 37° C. For the measurement of apical K+ conductance in T84 cells, NaHCO3 and NaCl were replaced with Na gluconate, and Na gluconate in basolateral solution was replaced with K gluconate and bubbled with air. The basolateral membrane was permeabilized with 20 μM amphotericin B. Short-circuit current was measured using a DVC-1000 voltage-clamp apparatus (World Precision Instruments).

A word on the IC50: it is the midpoint of a concentration-inhibition curve.

T1 sequence (P13569 whole entry): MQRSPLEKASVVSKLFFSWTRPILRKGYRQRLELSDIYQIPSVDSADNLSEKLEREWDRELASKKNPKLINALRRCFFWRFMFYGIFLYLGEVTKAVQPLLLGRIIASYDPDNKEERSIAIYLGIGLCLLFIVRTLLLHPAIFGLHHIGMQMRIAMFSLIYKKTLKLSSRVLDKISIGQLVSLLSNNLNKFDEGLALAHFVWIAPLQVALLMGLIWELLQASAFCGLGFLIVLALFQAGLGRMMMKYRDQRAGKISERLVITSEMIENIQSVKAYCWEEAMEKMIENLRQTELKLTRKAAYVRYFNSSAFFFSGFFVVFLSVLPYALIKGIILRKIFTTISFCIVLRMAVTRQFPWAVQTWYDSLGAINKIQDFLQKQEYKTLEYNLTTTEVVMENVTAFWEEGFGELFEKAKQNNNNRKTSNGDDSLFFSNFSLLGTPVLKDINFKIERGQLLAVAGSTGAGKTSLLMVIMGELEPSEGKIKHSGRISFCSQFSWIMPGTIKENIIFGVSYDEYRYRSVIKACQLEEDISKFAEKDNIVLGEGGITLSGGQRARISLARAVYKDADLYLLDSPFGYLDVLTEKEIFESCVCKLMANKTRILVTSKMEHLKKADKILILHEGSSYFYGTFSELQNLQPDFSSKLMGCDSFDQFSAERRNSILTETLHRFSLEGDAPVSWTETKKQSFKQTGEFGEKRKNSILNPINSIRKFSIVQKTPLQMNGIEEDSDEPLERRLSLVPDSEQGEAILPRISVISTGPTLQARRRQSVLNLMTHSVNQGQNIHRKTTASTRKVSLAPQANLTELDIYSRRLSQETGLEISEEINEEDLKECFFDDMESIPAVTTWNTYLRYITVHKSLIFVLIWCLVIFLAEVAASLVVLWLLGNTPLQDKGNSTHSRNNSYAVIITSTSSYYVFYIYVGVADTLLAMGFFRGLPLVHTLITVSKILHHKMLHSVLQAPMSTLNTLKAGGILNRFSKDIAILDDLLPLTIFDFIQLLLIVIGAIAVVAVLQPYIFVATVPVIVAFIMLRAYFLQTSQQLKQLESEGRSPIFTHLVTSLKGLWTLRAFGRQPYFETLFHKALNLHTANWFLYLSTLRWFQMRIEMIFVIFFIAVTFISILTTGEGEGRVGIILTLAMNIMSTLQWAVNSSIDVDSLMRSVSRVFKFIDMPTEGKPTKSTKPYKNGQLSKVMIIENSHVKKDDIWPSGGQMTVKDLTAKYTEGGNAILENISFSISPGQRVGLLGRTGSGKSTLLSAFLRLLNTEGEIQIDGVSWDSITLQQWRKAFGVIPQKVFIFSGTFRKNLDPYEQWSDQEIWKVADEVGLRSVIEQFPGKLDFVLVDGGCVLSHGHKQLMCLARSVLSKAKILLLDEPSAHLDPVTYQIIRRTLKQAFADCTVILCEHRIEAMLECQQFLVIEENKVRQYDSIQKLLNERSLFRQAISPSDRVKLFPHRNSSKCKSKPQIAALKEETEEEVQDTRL

For CFTRinh-172, the “inhibition of CFTR after crofelemer pre-treatment” value was around 100% and the “IC50 in absence versus presence of crofelemer” value is given as “similar”.

For `O=C(CNc1ccc2ccccc2c1)N/N=C/c1cc(Br)c(O)c(Br)c1O` [GlyH-101], the “inhibition of CFTR after crofelemer pre-treatment” value is around 100% and the “IC50 in absence versus presence of crofelemer” value was “similar”. In addition, the IC50 (CFTR activated by CPT-cAMP, basolateral membrane permeabilized, Cl− gradient, inhibitor in apical solution, read-out: apparent IC50 for inhibition of CFTR Cl− current) is around 8 µM.

The values above are taken from patent US20120202876A1, “METHODS OF TREATING DISEASES WITH PROANTHOCYANIDIN OLIGOMERS SUCH AS CROFELEMER” (NAPO PHARMACEUTICALS, INC., priority 2009, published 2012).
